Tested on: SEM cells
Assay: cell viability relative to DMSO control; higher = less cytotoxic
Conditions: 48 h
Summary of the method: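 Library compounds in DMSO were pin-dosed into 1536-well plates (5 μl) holding NOMO1 or SEM (500 cells/well) or P12-Ichikawa (1000 cells/well) leukemia cells, across an 11-point threefold series of 47 μM to 0.79 nM. Each cell line had been adapted for at least four passages in each medium. CellTiter-Glo One luminescence was read after 48 h at 37°C. Viability is the per-plate percentage relative to DMSO wells, with cell-free wells as background.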

[1] = HPLM + 10% dialyzed FBS, 0.000781 µM
[2] = HPLM + 10% dialyzed FBS, 0.00234 µM
[3] = HPLM + 10% dialyzed FBS, 0.00702 µM
[4] = HPLM + 10% dialyzed FBS, 0.0211 µM
[5] = HPLM + 10% dialyzed FBS, 0.0632 µM
[6] = HPLM + 10% dialyzed FBS, 0.19 µM
[7] = HPLM + 10% dialyzed FBS, 0.569 µM
[8] = HPLM + 10% dialyzed FBS, 1.71 µM
[9] = HPLM + 10% dialyzed FBS, 5.12 µM
[10] = HPLM + 10% dialyzed FBS, 15.4 µM
[11] = HPLM + 10% dialyzed FBS, 46.1 µM
[12] = RPMI 5 mM glucose + 10% FBS, 0.000781 µM
[13] = RPMI 5 mM glucose + 10% FBS, 0.00234 µM
[14] = RPMI 5 mM glucose + 10% FBS, 0.00702 µM
[15] = RPMI 5 mM glucose + 10% FBS, 0.0211 µM
[16] = RPMI 5 mM glucose + 10% FBS, 0.0632 µM
[17] = RPMI 5 mM glucose + 10% FBS, 0.19 µM
[18] = RPMI 5 mM glucose + 10% FBS, 0.569 µM
[19] = RPMI 5 mM glucose + 10% FBS, 1.71 µM
[20] = RPMI 5 mM glucose + 10% FBS, 5.12 µM
[21] = RPMI 5 mM glucose + 10% FBS, 15.4 µM
[22] = RPMI 5 mM glucose + 10% FBS, 46.1 µM
[23] = RPMI 5 mM glucose + 10% dialyzed FBS, 0.000781 µM
[24] = RPMI 5 mM glucose + 10% dialyzed FBS, 0.00234 µM
[25] = RPMI 5 mM glucose + 10% dialyzed FBS, 0.00702 µM
[26] = RPMI 5 mM glucose + 10% dialyzed FBS, 0.0211 µM
[27] = RPMI 5 mM glucose + 10% dialyzed FBS, 0.0632 µM
[28] = RPMI 5 mM glucose + 10% dialyzed FBS, 0.19 µM
[29] = RPMI 5 mM glucose + 10% dialyzed FBS, 0.569 µM
[30] = RPMI 5 mM glucose + 10% dialyzed FBS, 1.71 µM
[31] = RPMI 5 mM glucose + 10% dialyzed FBS, 5.12 µM
[32] = RPMI 5 mM glucose + 10% dialyzed FBS, 15.4 µM
[33] = RPMI 5 mM glucose + 10% dialyzed FBS, 46.1 µM

SMILES | cell viability [1] [%] | cell viability [2] [%] | cell viability [3] [%] | cell viability [4] [%] | cell viability [5] [%] | cell viability [6] [%] | cell viability [7] [%] | cell viability [8] [%] | cell viability [9] [%] | cell viability [10] [%] | cell viability [11] [%] | cell viability [12] [%] | cell viability [13] [%] | cell viability [14] [%] | cell viability [15] [%] | cell viability [16] [%] | cell viability [17] [%] | cell viability [18] [%] | cell viability [19] [%] | cell viability [20] [%] | cell viability [21] [%] | cell viability [22] [%] | cell viability [23] [%] | cell viability [24] [%] | cell viability [25] [%] | cell viability [26] [%] | cell viability [27] [%] | cell viability [28] [%] | cell viability [29] [%] | cell viability [30] [%] | cell viability [31] [%] | cell viability [32] [%] | cell viability [33] [%]
COC(=O)C\1=C(C)\N\C(=C(/C1C2=CC=CC3=NON=C23)C(=O)OC(C)C)C (centres undefined) | 105 | 98.6 | 97.7 | 105 | 109 | 100 | 95 | 83.6 | 110 | 90.4 | 80.1 | 87.2 | 96.4 | 107 | 126 | 101 | 100 | 98.2 | 95 | 85.5 | 88 | 78.6 | 98.9 | 96.9 | 104 | 110 | 111 | 114 | 114 | 95.2 | 87.2 | 99.2 | 70.8
CC#CCn1c(N2CCC[C@@H](N)C2)nc2c1c(=O)n(Cc1nc(C)c3ccccc3n1)c(=O)n2C | 107 | 114 | 115 | 42.6 | 115 | 104 | 112 | 109 | 111 | 116 | 83.3 | 105 | 97.9 | 105 | 40.3 | 114 | 102 | 112 | 108 | 109 | 102 | 88.7 | 96.8 | 94.4 | 88.7 | 45.6 | 108 | 96 | 108 | 93.9 | 93.5 | 99.1 | 75.2
CNc1nc(Nc2cnn([C@H]3CCN(C4COC4)C[C@@H]3F)c2Cl)ncc1C(F)(F)F | 96 | 89.1 | 97.7 | 103 | 109 | 105 | 112 | 93.1 | 37.7 | 20.9 | 26.5 | 103 | 123 | 108 | 112 | 85.3 | 55.7 | 65.5 | 20.1 | 18.9 | 16.1 | 17.6 | 101 | 106 | 112 | 116 | 126 | 106 | 106 | 73.6 | 32 | 17.6 | 17.1
COC1=C(OCCCN2CCOCC2)C=C3N=CC=C(OC4=CC=C(C=C4F)\C5=C\N=C(\NC6=CC=C(F)C=C6)N(C)C5=O)C3=C1 | 110 | 112 | 110 | 91.7 | 68.9 | 57.7 | 59 | 52.4 | 47.8 | 40.7 | 5.64 | 103 | 108 | 113 | 81.2 | 79.4 | 65.2 | 46.7 | 56.5 | 52.6 | 37.6 | 1.97 | 110 | 116 | 103 | 77.9 | 73.8 | 52 | 45.9 | 44 | 43 | 34.8 | 3.15
CN1CCCN(CC1)C2=CC=C3C(=O)\C(=C/4SC5=C(C=CC=C5)N4C3=N2)C(=O)NCC6=CN=C(C)C=N6 | 110 | 102 | 114 | 91.7 | 97.9 | 103 | 82.2 | 88.1 | 81.2 | 73.6 | 41.6 | – | – | – | – | – | – | – | – | – | – | – | 89.6 | 93.9 | 97.5 | 92.7 | 98.1 | 79.5 | 68.2 | 71.3 | 70.5 | 56.3 | 33.1
CC1=CC(=CC(=C1C\C2=N\CCN2)C)C(C)(C)C | 58.5 | 90.1 | 83.4 | 100 | 88.3 | 98.1 | 97.4 | 100 | 106 | 107 | 77.6 | 77.8 | 104 | 91.7 | 101 | 103 | 96.4 | 110 | 104 | 110 | 83.3 | 94.9 | 89.1 | 96.3 | 102 | 105 | 118 | 107 | 118 | 112 | 113 | 120 | 94.7
O=C(CCCN1CCN(c2ccc(F)cc2)CC1)NC1c2ccccc2CSc2ccccc21 (centres undefined) | 111 | 135 | 116 | 126 | 131 | 121 | 33.8 | 126 | 113 | 118 | 89.6 | 128 | 112 | 115 | 115 | 120 | 118 | 51 | 103 | 101 | 92 | 49.9 | 112 | 122 | 102 | 104 | 123 | 112 | 40.7 | 113 | 95.3 | 81.2 | 43.6
Cc1ccnc2c1NC(=O)c1cccnc1N2C1CC1 | 63.6 | 84.2 | 97.9 | 101 | 95.8 | 97.2 | 106 | 107 | 91.8 | 102 | 111 | 83.7 | 85.2 | 84.6 | 85.4 | 96.7 | 96.8 | 90.9 | 101 | 99.4 | 105 | 99.6 | 90.8 | 86.6 | 94.5 | 90.1 | 90.1 | 89.7 | 93 | 90.4 | 105 | 101 | 93.6
Nc1c2c(nc3ccccc13)CCCC2 | 92.9 | 104 | 118 | 109 | 115 | 118 | 101 | 25.6 | 108 | 108 | 86.1 | 121 | 123 | 122 | 109 | 111 | 112 | 97.3 | 17.5 | 100 | 118 | 80.5 | 109 | 131 | 123 | 104 | 112 | 123 | 95.7 | 24.7 | 117 | 104 | 87.6
Cc1cccc(Nc2ccncc2[S+](=O)([O-])NC(=O)NC(C)C)c1 | 80.2 | 82.6 | 88 | 92.4 | 85.7 | 95.1 | 98.6 | 85.6 | 75.5 | 84.4 | 72.3 | 103 | 94.6 | 83.8 | 102 | 96.2 | 97.9 | 111 | 87.7 | 90.4 | 95.3 | 88.5 | 89.7 | 104 | 110 | 94.4 | 106 | 111 | 101 | 95.7 | 83.8 | 101 | 84.5
CCOC(=O)C(C)OC1=CC=CC2=C1\C=C/N(CC(=O)NC3=CC=C4OCCOC4=C3)C2=O (centres undefined) | 77.7 | 85.4 | 92.1 | 93 | 102 | 92.3 | 92.4 | 97.4 | 103 | 100 | 102 | 80.1 | 87.8 | 88 | 88 | 93.2 | 90.2 | 93.5 | 95 | 109 | 98.1 | 92.6 | 90.1 | 94.9 | 102 | 89 | 85.4 | 98 | 99.2 | 104 | 99.1 | 88.2 | 112
Nc1ccc([S+](=O)([O-])Nc2ccnn2-c2ccccc2)cc1 | 76.6 | 89.9 | 80.9 | 97.8 | 87.8 | 98.8 | 109 | 95.5 | 94.8 | 93.8 | 93 | 89.4 | 92.8 | 105 | 102 | 88.8 | 98.2 | 114 | 102 | 89 | 96.2 | 116 | 95.1 | 89.5 | 104 | 86.2 | 97.5 | 88 | 107 | 94.8 | 115 | 106 | 104
Nc1ncnc2c1ncn2[C@@H]1O[C@H](CO)C[C@H]1O | 95.8 | 98 | 111 | 106 | 111 | 101 | 103 | 97.4 | 79.7 | 59.4 | 41.2 | 95 | 96 | 99.6 | 98.7 | 104 | 93.2 | 95.4 | 93.6 | 97.8 | 73 | 67.7 | 86.7 | 93.4 | 87.9 | 99.7 | 96.1 | 91.7 | 95.6 | 89.6 | 91.1 | 65 | 41.7
C[C@]12CC[C@H]3[C@@H](CCC4=CC(=O)CC[C@@H]43)[C@@H]1CC[C@@H]2OC(=O)CCc1ccccc1 | 83.2 | 22.9 | 101 | 93.8 | 100 | 98.5 | 94.3 | 99.6 | 85.9 | 91.4 | 93.6 | 116 | 24.5 | 123 | 111 | 116 | 115 | 108 | 122 | 110 | 120 | 114 | 99.4 | 26.5 | 107 | 122 | 112 | 109 | 104 | 123 | 100 | 125 | 113
CNC(=O)c1ccc(Nc2cc(Nc3ccccc3[S+](=O)([O-])C(C)C)c3cc[nH]c3n2)nc1 | 81.7 | 76.4 | 96.5 | 90.7 | 89.8 | 98.3 | 82.9 | 38.2 | 28.4 | 24.3 | 16.8 | 93.5 | 118 | 106 | 114 | 104 | 102 | 101 | 48.9 | 20.8 | 17.7 | 6.52 | 83.9 | 99.4 | 98.5 | 94.7 | 102 | 97.6 | 85 | 27 | 20.1 | 17.4 | 7.56

From the supplement of paper PMC11451515
